Legend:
[1] = molecular target: T1, hsHDAC1 (Homo sapiens, UniProt Q13547); assay: In vitro hsHDAC1 inhibition (ZMAL substrate, trypsin developer); type: biochemical; conditions: read-out: hsHDAC1 (% inhibition, ZMAL)
[2] = molecular target: T2, smHDAC8 (Schistosoma mansoni, UniProt A5H660); assay: biochemical; type: biochemical; conditions: @ 10 μM; pretest n=1; read-out: smHDAC8 (% inhibition, Fluor de Lys)
T2 construct: made in house; host or cells: E. coli
T2 sequence (A5H660 1-440): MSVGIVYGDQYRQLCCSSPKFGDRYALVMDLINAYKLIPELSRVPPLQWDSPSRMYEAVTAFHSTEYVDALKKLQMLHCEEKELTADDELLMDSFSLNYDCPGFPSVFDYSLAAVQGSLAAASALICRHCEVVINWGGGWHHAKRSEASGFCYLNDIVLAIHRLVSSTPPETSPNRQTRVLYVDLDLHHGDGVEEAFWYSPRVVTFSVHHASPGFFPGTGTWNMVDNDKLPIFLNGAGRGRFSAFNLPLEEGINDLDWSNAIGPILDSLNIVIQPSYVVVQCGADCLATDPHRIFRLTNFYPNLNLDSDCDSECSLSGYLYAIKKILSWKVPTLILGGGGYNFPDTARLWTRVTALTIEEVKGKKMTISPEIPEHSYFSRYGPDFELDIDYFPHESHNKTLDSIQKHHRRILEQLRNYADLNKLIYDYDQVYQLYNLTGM

[3] = molecular target: T1, hsHDAC1; set-up: method as in PMID 24086136, PMID 26013035; conditions: @ 10 μM; SAHA row of Table 3; cited from earlier work

T1 sequence (Q13547 whole entry): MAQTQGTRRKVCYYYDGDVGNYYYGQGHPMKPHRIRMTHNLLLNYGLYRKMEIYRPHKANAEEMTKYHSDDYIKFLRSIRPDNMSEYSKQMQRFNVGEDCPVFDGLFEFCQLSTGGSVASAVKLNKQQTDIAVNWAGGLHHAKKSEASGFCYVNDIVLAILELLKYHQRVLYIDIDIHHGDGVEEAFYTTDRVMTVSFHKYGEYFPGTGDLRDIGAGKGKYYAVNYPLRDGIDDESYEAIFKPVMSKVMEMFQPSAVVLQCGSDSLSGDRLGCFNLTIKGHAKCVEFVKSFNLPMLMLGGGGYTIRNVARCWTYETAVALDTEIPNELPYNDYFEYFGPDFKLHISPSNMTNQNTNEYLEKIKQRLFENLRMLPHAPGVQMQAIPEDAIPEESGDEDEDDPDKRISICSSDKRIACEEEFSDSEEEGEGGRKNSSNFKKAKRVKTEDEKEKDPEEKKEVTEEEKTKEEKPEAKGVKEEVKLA

O=C(CCCCCCC(=O)Nc1ccccc1)NO [SAHA (1), SAHA, reference compound]
inhibition at 10 µM [1]: 97.3 ± 1.3%
inhibition at 10 µM [2]: 72%
hsHDAC1 % inhibition (ZMAL) [3]: 0.117±0.0056 97.3±1.3 % @ 10 μM
